Results as given in patent publication US20140079778A1, “Pharmaceutical Formulations Including An Amine Compound” (AstraZeneca UK Limited, priority 2011, published 2014).
Where two headings read alike, the source gives them in different places.

Columns and labels:
[1] = Example 6: NFA of saxagliptin in saxagliptin/Opadry II films with amino acids (HPLC); type: physicochemical; details: for % NFA (as a % of saxagliptin peak): Saxagliptin/Opadry II films, amino acid 2% w/w in dispersion, sealed vials 60° C. five days, control without amine 2.63
[2] = Saxagliptin Hydrochloride/Opadry II films, amino acid 2% w/w in dispersion, 60° C. five days; control without amine 2.73
[3] = type: physicochemical; details: Saxagliptin Hydrochloride/Opadry II films, amine 2% w/w in dispersion, 60° C. five days; control without amine 2.73
[4] = Example 4: NFA of saxagliptin in saxagliptin/Opadry II films with amine compounds (HPLC); type: physicochemical; details: amine 2% w/w in dispersion, sealed vials 60° C. five days, control without amine 2.63

SMILES | protecting saxagliptin from reaction with formyl species (rank among amino acids) ([1]; saxagliptin and saxagliptin hydrochloride Opadry II films) | % NFA (as a % of saxagliptin peak) [3] [%] | % NFA (as a % of saxagliptin peak) [4] [%] | % NFA (as a % of saxagliptin peak) [1] [%] | % NFA (as a % of saxagliptin peak) [2] [%] | extraneous peaks in the chromatogram ([1]; saxagliptin and saxagliptin hydrochloride Opadry II films, HPLC)
N=C(N)NCCC[C@H](N)C(=O)O [Arginine, arginine] |  |  |  | 0 | 0 | formation of extraneous unidentified peaks
N[C@@H](Cc1c[nH]cn1)C(=O)O [Histidine, histidine] |  |  |  | 1.68 |  | 
NCCCC[C@H](N)C(=O)O [Lysine, lysine] |  |  |  | 2.84 | 2.08 | 
OCCNCCO [Diethanolamine, diethanolamine] |  | 0.62 | 3.61 |  |  | 

Continued, in another order:

protecting saxagliptin from reaction with formyl species (rank among amino acids) ([1]; saxagliptin and saxagliptin hydrochloride Opadry II films) | % NFA (as a % of saxagliptin peak) [3] [%] | % NFA (as a % of saxagliptin peak) [4] [%] | SMILES | % NFA (as a % of saxagliptin peak) [1] [%] | % NFA (as a % of saxagliptin peak) [2] [%] | extraneous peaks in the chromatogram ([1]; saxagliptin and saxagliptin hydrochloride Opadry II films, HPLC)
most potent |  |  | NCC(=O)O [Glycine, glycine] | 0 | 0 | 
 | 0 | 0 | NCCO [Ethanolamine, ethanolamine] |  |  | 
